Data reported in patent publication US11414387B2, “Oxoacridinyl acetic acid derivatives and methods of use” (Stingthera, Inc., priority 2017, dated 2022).

Legend:
hSTING-WT = hSTING-WT (Homo sapiens (Human), UniProt Q86WV6, H232R); assay: Radiometric filtration binding competition assay, hSTING-WT
STING protein = STING protein (Homo sapiens (Human), UniProt Q86WV6, H232R); assay: Cell based reporter assay of IRF activation (IRF-luciferase), THP1-dual-KI R232; conditions: read-out: THP1-dual-KI R232_IRF(Luciferase)_Activity Maximum measured (%)
hSTING-R232 = hSTING-R232 (Homo sapiens (Human), UniProt Q86WV6, H232R); assay: STING differential scanning fluorimetry (DSF) assay, WT human STING; conditions: WT (R232) human STING aa140-379, net shift in melting temperature
mSTING-R232 = mSTING-R232 (Mus musculus, UniProt Q3TBT3); assay: STING differential scanning fluorimetry (DSF) assay, mouse STING; conditions: net shift in melting temperature
Procedure: A STING DSF assay was performed to determine protein thermostability shift in response to small molecule ligand binding. A STING thermostability shift assay based on differential scanning fluorimetry was used to measure (1) the net shift in melting temperature (ΔTm)between the apo and ligand-bound states of the STING protein and (2) the concentration of the thermal denaturation transition (EC50) as a surrogate measure of binding affinity (K). […] Protein in assay buffer was transferred to a 384 well plate and incubated with the hydrophobic fluorescent dye SYBR Orange. A temperature ramp was applied to the plate and the resulting dye fluorescence was plotted as a function of temperature. The first derivative of this function (dF/dT) was then used to extrapolate the melting temperature of the protein at various concentrations of compound and determine the thermal denaturation profile of a protein/compound complex.
• 1. Protein construct (affinity tag removal vs SUMO-fusion construct) • 2. Protein concentration • 3. Dye concentration • 4. Buffer • 5. Thermal ramp velocity • 6. DMSO tolerance • 7. Compound titration parameters • 8. […] 5 μM purified Target STING Protein • 3. 8 μM Sypro Orange Dye • 4. Buffer: 100 mM NaCl, 30 mM HEPES, pH 7.5 • 5. Thermal Ramp: 0.5° C./min • 6. <1% DMSO • 7. 11 point, 2 fold dilution, duplicate, 300 μM high concentrations • 8.

mSTING = mSTING (Mus musculus, UniProt Q3TBT3); assay: Radiometric filtration binding competition assay, mSTING
Procedure: A radiometric filtration binding competition assay was performed to quantify the binding affinity of compounds of the present application for the human or mouse STING protein, or associated HAQ human isoform. […] The resulting dose response was fit by non-linear regression to determine an IC50 value, from which a Ki value for each compound was extrapolated.
The resulting complexes were then filtered, dried, and scintillation fluid was added and the remaining radio signal was measured to determine the degree of compound ligand inhibition. This assay format was optimized for both the WT and HAQ isoforms of the human protein and the mouse orthologue protein.
Probe Concentration: Minimum concentration that achieved max assay window • g. Assay Format: Scintillation Proximity Bead or Filtration Binding Plate • h. […] Assay incubation times for successive incubation steps
WT-hSWAT: WT_FBA_HIS-SUMO-hSWAT IC50 (μM) (“WT”=Wild-type); HAQ-hSWAT: HAQ_FBA_HIS-SUMO-hSWAT IC50 (μM) (“HAQ”=human HAQ allele of STING protein); and WT-mSWAT: MOUSE_FBA_HIS-SUMO-mnSWAT IC50 (μM) which is the mouse isoform of STING protein.

Sequence of hSTING-WT (Q86WV6 140-379 H232R): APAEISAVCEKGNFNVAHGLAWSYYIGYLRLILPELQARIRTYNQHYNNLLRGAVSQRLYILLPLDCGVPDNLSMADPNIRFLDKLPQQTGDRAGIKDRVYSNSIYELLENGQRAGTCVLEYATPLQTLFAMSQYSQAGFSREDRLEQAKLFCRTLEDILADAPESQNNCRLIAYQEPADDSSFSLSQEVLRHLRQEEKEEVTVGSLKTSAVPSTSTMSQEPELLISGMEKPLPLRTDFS
Sequence of hSTING-R232 (Q86WV6 140-379 H232R): as above
Sequence of STING protein (Q86WV6 whole entry H232R, the tested form may be a part): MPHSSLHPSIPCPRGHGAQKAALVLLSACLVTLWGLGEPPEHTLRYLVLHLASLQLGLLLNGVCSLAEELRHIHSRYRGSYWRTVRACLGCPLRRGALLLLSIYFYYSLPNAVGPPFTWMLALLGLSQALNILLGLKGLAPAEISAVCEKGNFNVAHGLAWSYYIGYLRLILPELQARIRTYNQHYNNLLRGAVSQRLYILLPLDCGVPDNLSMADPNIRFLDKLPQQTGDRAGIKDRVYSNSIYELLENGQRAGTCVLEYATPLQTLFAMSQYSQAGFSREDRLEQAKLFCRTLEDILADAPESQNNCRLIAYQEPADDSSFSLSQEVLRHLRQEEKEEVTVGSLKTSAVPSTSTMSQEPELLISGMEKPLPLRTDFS

SMILES	IC50 (hSTING-WT) [µM]	Emax (STING protein) [%]	WT_DSF_hSWAT Tm Shift (° C.) (hSTING-R232)	MOUSE DSF_6xHIS-SUMO Tm Shift (° C.) (mSTING-R232)	IC50 (mSTING) [µM]
O=C(O)Cn1c2cc(-c3cccc(F)c3)ccc2c(=O)c2ccc(Cl)c(Cl)c21 [Compound 152]	20 to 100	5 to 25	C (“C” = 2-7° C,)	C (“C” = 5-15° C.)	20 to 100
O=C(O)Cn1c2cc(-c3ccc(Cl)cc3)ccc2c(=O)c2ccc(Cl)c(Cl)c21 [Compound 156]	100 to 300	< 5	B (“B” = 0-2° C.)	C (“C” = 5-15° C.)	< 20
CC(C)Oc1c(Cl)ccc2c(=O)c3ccc(C(C)(C)C)cc3n(CC(=O)O)c12 [Compound 225]	< 20	> 50	D (“D” > 7° C.)	D (“D” > 15° C.)	20 to 100
CCSc1ccc2c(=O)c3ccc(Cl)c(OC)c3n(CC(=O)O)c2c1 [Compound 231]	20 to 100	> 50	D (“D” > 7° C.)	D (“D” > 15° C.)	< 20
COc1c(Cl)ccc2c(=O)c3ccc(SC(C)C)cc3n(CC(=O)O)c12 [Compound 232]	100 to 300	> 50	D (“D” > 7° C.)	D (“D” > 15° C.)	< 20
COc1c(Cl)ccc2c(=O)c3ccc(SC)cc3n(CC(=O)O)c12 [Compound 234]	20 to 100	> 50	D (“D” > 7° C.)	D (“D” > 15° C.)	< 20
COc1c(Cl)ccc2c(=O)c3ccc(Nc4cccc(O)c4)cc3n(CC(=O)O)c12 [Compound 235]	< 20	< 5	D (“D” > 7° C.)	D (“D” > 15° C.)	< 20
CCOc1c(Cl)ccc2c(=O)c3ccccc3n(CC(=O)O)c12 [Compound 244]	100 to 300	> 50	D (“D” > 7° C.)	C (“C” = 5-15° C.)	20 to 100
COc1c(Cl)ccc2c(=O)c3ccc(Nc4ccc(F)cc4)cc3n(CC(=O)O)c12 [Compound 250]	< 20	> 50	D (“D” > 7° C.)	D (“D” > 15° C.)	< 20
COc1c(Cl)ccc2c(=O)c3ccc(Nc4ccc(Cl)cc4)cc3n(CC(=O)O)c12 [Compound 251]	20 to 100	25 to 50	D (“D” > 7° C.)	D (“D” > 15° C.)	< 20
CS(=O)(=O)Nc1cccc(Nc2ccc3c(=O)c4ccc(Cl)c(Cl)c4n(CC(=O)O)c3c2)c1 [Compound 257]	20 to 100	< 5	D (“D” > 7° C.)	D (“D” > 15° C.)	< 20
COc1c(Cl)ccc2c(=O)c3ccc(C(C)(C)C)cc3n(CC(=O)NS(C)(=O)=O)c12 [Compound 262]	20 to 100	> 50	D (“D” > 7° C.)	D (“D” > 15° C.)	< 20
COc1c(Cl)ccc2c(=O)c3ccc(Nc4cnccn4)cc3n(CC(=O)O)c12 [Compound 263]	20 to 100	< 5	D (“D” > 7° C.)	D (“D” > 15° C.)	< 20
COc1c(Cl)ccc2c(=O)c3ccc(Nc4ccc(OC(F)(F)F)cc4)cc3n(CC(=O)O)c12 [Compound 266]	< 20	> 50	D (“D” > 7° C.)	D (“D” > 15° C.)	< 20
COc1c(Cl)ccc2c(=O)c3ccc(Nc4ccccc4Cl)cc3n(CC(=O)O)c12 [Compound 267]	< 20	> 50	D (“D” > 7° C.)	D (“D” > 15° C.)	< 20
COc1c(Cl)ccc2c(=O)c3ccc(-c4ccc(O)cc4)cc3n(CC(=O)O)c12 [Compound 269]	< 20	> 50	D (“D” > 7° C.)	D (“D” > 15° C.)	< 20
COc1c(Cl)ccc2c(=O)c3ccc(-c4cccc(O)c4)cc3n(CC(=O)O)c12 [Compound 270]	< 20	> 50	D (“D” > 7° C.)	D (“D” > 15° C.)	< 20
